Source: ChEMBL document CHEMBL1201862, “PubChem BioAssay data set” (2004)
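Five compound concentrations were applied to cells in 96-well plates for 48 hours; endpoints were derived by simple linear interpolation of the resulting dose-response curve. GI50 is the concentration that inhibits growth by half.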 Activity calls are given as the source filed them. No stated cut-off is given here; in the data, active = GI50 up to about 1.1 µM and inactive = higher.

How the values were obtained:
Experiment in all cases: NCI-60 cell line screen, 48 h
NCI-H522 = system: NCI-H522
IGROV-1 = system: IGROV-1
KM12 = system: KM12
UO-31 = system: UO-31
SK-MEL-2 = system: SK-MEL-2
DLD-1 = system: DLD-1
LOX IMVI = system: LOX IMVI
SK-OV-3 = system: SK-OV-3
SK-MEL-28 = system: SK-MEL-28
M19-MEL = system: M19-MEL
HOP-18 = system: HOP-18
MOLT-4 = system: MOLT-4
NCI-H226 = system: NCI-H226
NCI-H460 = system: NCI-H460
EKVX = system: EKVX
U-251 = system: U-251
Malme-3M = system: Malme-3M
NCI-H23 = system: NCI-H23
OVCAR-3 = system: OVCAR-3
SNB-19 = system: SNB-19
CAKI-1 = system: CAKI-1
HCC 2998 = system: HCC 2998
SN12C = system: SN12C
RXF 631 = system: RXF 631
RXF 393 = system: RXF 393
HOP-62 = system: HOP-62
786-0 = system: 786-0
COLO 205 = system: COLO 205
K562 = system: K562
SNB-75 = system: SNB-75
A498 = system: A498
KM-20L2 = system: KM-20L2
SK-MEL-5 = system: SK-MEL-5
CCRF-CEM = system: CCRF-CEM
HCT-15 = system: HCT-15
ACHN = system: ACHN
HT-29 = system: HT-29
HCT-116 = system: HCT-116
OVCAR-8 = system: OVCAR-8
LXFL 529 = system: LXFL 529
A549 = system: A549
OVCAR-4 = system: OVCAR-4
OVCAR-5 = system: OVCAR-5
SW-620 = system: SW-620
SF-539 = system: SF-539
HL-60 = system: HL-60
HOP-92 = system: HOP-92
M14 = system: M14
SR = system: SR
UACC-257 = system: UACC-257

COC(=O)Cc1nn2c(nc1=O)sc1ccc3ccccc3c12
GI50 (NCI-H522): 37.2 µM (inactive) | GI50 (IGROV-1): > 100 µM (inactive) | GI50 (KM12): > 100 µM (inactive) | GI50 (UO-31): > 100 µM (inactive) | GI50 (SK-MEL-2): 93.8 µM (inactive) | GI50 (DLD-1): > 100 µM (inactive) | GI50 (LOX IMVI): 67.3 µM (inactive) | GI50 (SK-OV-3): > 100 µM (inactive) | GI50 (SK-MEL-28): > 100 µM (inactive) | GI50 (M19-MEL): > 100 µM (inactive) | GI50 (HOP-18): > 100 µM (inactive) | GI50 (MOLT-4): > 100 µM (inactive) | GI50 (NCI-H226): > 100 µM (inactive) | GI50 (NCI-H460): 62.7 µM (inactive) | GI50 (EKVX): > 100 µM (inactive) | GI50 (U-251): 25.1 µM (inactive) | GI50 (Malme-3M): > 100 µM (inactive) | GI50 (NCI-H23): > 100 µM (inactive) | GI50 (OVCAR-3): > 100 µM (inactive) | GI50 (SNB-19): > 100 µM (inactive) | GI50 (CAKI-1): 50.2 µM (inactive) | GI50 (HCC 2998): > 100 µM (inactive) | GI50 (SN12C): > 100 µM (inactive) | GI50 (RXF 631): 91.6 µM (inactive) | GI50 (RXF 393): 50.7 µM (inactive) | GI50 (HOP-62): 72.1 µM (inactive) | GI50 (786-0): 44.3 µM (inactive) | GI50 (COLO 205): > 100 µM (inactive) | GI50 (K562): > 100 µM (inactive) | GI50 (SNB-75): 37.3 µM (inactive) | GI50 (A498): > 100 µM (inactive) | GI50 (KM-20L2): > 100 µM (inactive) | GI50 (SK-MEL-5): > 100 µM (inactive) | GI50 (CCRF-CEM): > 100 µM (inactive) | GI50 (HCT-15): > 100 µM | GI50 (ACHN): 56.9 µM (inactive) | GI50 (HT-29): > 100 µM (inactive) | GI50 (HCT-116): > 100 µM (inactive) | GI50 (OVCAR-8): 43.2 µM (inactive) | GI50 (LXFL 529): > 100 µM (inactive) | GI50 (A549): > 100 µM (inactive) | GI50 (OVCAR-4): > 100 µM (inactive) | GI50 (OVCAR-5): > 100 µM (inactive) | GI50 (SW-620): > 100 µM (inactive) | GI50 (SF-539): > 100 µM (inactive) | GI50 (HL-60): > 100 µM (inactive) | GI50 (HOP-92): 63.8 µM (inactive) | GI50 (M14): > 100 µM (inactive) | GI50 (SR): > 100 µM (inactive) | GI50 (UACC-257): > 100 µM (inactive)
